Columns and labels:
DYRK3 = biological target: T1, DYRK3 (Homo sapiens, UniProt O43781); experiment: In vitro kinase assay, recombinant human DYRK3 (Life Technologies); assay type: biochemical
T1 construct: purchased Life Technologies (Kinase Profiler service)
T1 sequence (O43781 1-588): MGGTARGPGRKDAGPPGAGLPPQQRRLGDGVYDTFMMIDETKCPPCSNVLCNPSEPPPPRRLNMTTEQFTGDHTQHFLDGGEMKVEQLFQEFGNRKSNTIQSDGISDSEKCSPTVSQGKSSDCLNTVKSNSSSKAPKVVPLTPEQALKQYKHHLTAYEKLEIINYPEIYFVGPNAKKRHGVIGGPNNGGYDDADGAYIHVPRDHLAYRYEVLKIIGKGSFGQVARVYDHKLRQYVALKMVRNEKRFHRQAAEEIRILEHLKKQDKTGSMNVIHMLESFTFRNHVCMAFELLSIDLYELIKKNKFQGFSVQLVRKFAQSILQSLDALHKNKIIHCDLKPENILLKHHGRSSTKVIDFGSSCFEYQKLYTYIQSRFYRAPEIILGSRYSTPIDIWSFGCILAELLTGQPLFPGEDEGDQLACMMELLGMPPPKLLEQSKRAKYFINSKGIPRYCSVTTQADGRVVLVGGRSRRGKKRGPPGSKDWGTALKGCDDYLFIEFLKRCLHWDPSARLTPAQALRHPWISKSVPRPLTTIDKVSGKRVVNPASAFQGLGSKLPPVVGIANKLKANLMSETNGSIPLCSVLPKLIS

DYRK4 = biological target: T2, DYRK4 (Homo sapiens, UniProt Q9NR20); experiment: In vitro kinase assay, recombinant human DYRK4 (Life Technologies); assay type: biochemical
T2 construct: purchased Life Technologies (Kinase Profiler service)
T2 sequence (Q9NR20 1-520): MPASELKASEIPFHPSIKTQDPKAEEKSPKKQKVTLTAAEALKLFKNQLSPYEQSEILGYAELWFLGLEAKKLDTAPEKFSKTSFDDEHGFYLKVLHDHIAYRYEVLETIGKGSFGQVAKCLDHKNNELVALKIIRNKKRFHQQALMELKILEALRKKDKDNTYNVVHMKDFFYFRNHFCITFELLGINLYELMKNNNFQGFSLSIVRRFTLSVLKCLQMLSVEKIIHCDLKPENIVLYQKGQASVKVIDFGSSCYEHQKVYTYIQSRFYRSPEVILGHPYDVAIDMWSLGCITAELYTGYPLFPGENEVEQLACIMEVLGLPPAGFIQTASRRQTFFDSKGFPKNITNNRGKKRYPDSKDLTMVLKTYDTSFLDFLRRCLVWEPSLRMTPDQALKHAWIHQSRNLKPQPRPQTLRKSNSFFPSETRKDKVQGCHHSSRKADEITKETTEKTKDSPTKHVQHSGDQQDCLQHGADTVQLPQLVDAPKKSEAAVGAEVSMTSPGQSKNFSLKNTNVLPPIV

DYRK1A [1] = experiment: Tau phosphorylation (T212) in the hippocampus of DYRK1A transgenic mouse after oral administration; assay type: in vivo
Protocol: This mouse model has 50% higher expression of DYRK1A compared with a normal mouse, and increased Tau phosphorylation at T212 in the hippocampus has been well documented ([Ryoo et al., 2007]). Indeed, this phenomenon was also confirmed in our experiment.
Fig. 7. […] (A) Hippocampuses from normal and DYRK1A-overexpressing C57BL/6 mice (n=5 for each) were harvested, and the phosphorylation of Tau was analyzed by western blotting with anti-phosphorylated-Tau (at residue T212; p-Tau) and anti-Tau antibodies. α-Tubulin was also analyzed as a loading control. (B) The phosphorylated and total Tau proteins in panel A were quantified, and the mean amount of each protein was calculated. […] Total cell lysates were prepared and subjected to western blotting with the indicated antibodies. α-Tubulin was also analyzed as a loading control. (D) The phosphorylated and total Tau proteins in panel C were quantified, and the mean amount of each protein across the animals was calculated. Relative ratios of phosphorylated Tau to total Tau were calculated by setting the value from DYRK1A mice that had been treated with DMSO as 100%. […]
DYRK1A transgenic mice with three copies of the human DYRK1A gene were maintained as described previously ([Ahn et al., 2006]). […] The protein concentration was determined using the Bradford protein assay (Bio-Rad). […]

DYRK1A [2] = biological target: T3, DYRK1A (Homo sapiens, UniProt Q13627); experiment: DYRK1A kinase activity at various ATP and CX-4945 concentrations (Lineweaver-Burk); assay type: biochemical; design: purchased Life Technologies (Kinase Profiler service); conditions: ATP 50, 75, 100, 150 and 200 μM; Lineweaver-Burk plots
Protocol: Fig. 2. […] Data are mean±s.d. […] Hydrogen bonds are denoted as dotted black lines, and oxygen, nitrogen and chlorine atoms are indicated as red, blue and green sticks, respectively.
Kinase assays were conducted using the Kinase Profiler services offered by Life Technologies, which utilizes a fluorescence-based immunoassay. Detailed protocols can be found at http://www.lifetechnologies.com/kinaseprofiling. […] All experiments were performed twice.

DYRK1A [3] = biological target: T3, DYRK1A; experiment: DYRK1A-mediated Tau (T212) phosphorylation in transfected 293T cells, western blot; assay type: cell-based; design: expressed in transfected cells; host or cells: 293T cells

## O=C(O)c1ccc2c(c1)nc(Nc1cccc(Cl)c1)c1ccncc12 [CX-4945]
DYRK3
  IC50: 18 nM
DYRK4
  IC50: 1500 nM
DYRK1A [1]; DYRK1A-overexpressing C57BL/6 mice, 75 mg/kg oral, 30 min
  phosphorylation of Tau (T212) in hippocampus: remarkably decreased
DYRK1A [1]; inferred from hippocampal Tau phosphorylation after oral 75 mg/kg
  blood-brain barrier penetration: efficiently penetrates the blood-brain barrier
DYRK1A [2]
  mode of DYRK1A inhibition: ATP-competitive manner
DYRK1A [3]; 0.1 μM
  inhibition of Tau phosphorylation at 0.1 μM: Moderate inhibition
DYRK1A [3]; 1 μM
  inhibition of Tau phosphorylation at 1 μM: almost complete inhibition

Reference: article PMC5007978, “A chemical with proven clinical safety rescues Down-syndrome-related phenotypes in through DYRK1A inhibition” (Disease Models & Mechanisms, 2016)
